Literature values in the CATMoS acute toxicity set (Mansouri et al. 2021).

Test: rat acute oral toxicity
Conditions: in vivo

COc1ccc(CCNCC(O)COc2cccc(C)c2)cc1OC (stereo unspecified)
LD50: 460 mg/kg

CC(=O)CC1OCC(CCl)O1 (stereo unspecified)
LD50: 120 mg/kg

CCOC(=O)NCCOc1ccc(Oc2ccccc2)cc1
LD50: 16800 mg/kg

OC[C@@H](O)[C@H]1O[C@@H]2O[C@H](C(Cl)(Cl)Cl)O[C@@H]2[C@H]1O
LD50: 400 mg/kg

CC(=O)OCCCc1ccccc1
LD50: 4700 mg/kg

CCCCCCCCCCCCCCN(CC)C(C)(CO)CO
LD50: 1500 mg/kg

CCOP(=S)(OCC)SCSC(C)C
LD50: 1.1 mg/kg

c1ccc(N2CCOCC2)cc1
LD50: 930 mg/kg

NCCCCCCNCCCCCCN
LD50: 450 mg/kg

CN1CCN(CCCN2c3ccccc3Sc3ccc(Cl)cc32)CC1
LD50: 1800 mg/kg

Oc1ccc(C(O)CNCCCCCCNCC(O)c2ccc(O)c(O)c2)cc1O (stereo unspecified)
LD50: 10000 mg/kg

C[C@H](CN1CCOCC1)C(C(=O)N1CCCC1)(c1ccccc1)c1ccccc1
LD50: 71.8 mg/kg

Nc1ncnc(Nc2cccc(Cl)c2)n1
LD50: 400 mg/kg

CCS(=O)(=O)CCn1c([N+](=O)[O-])cnc1C
LD50: 2710 mg/kg

CCCCCCCCCCCC[n+]1ccc2ccccc2c1
LD50: 230 mg/kg

O=[N+]([O-])c1ccc([C@@H](O)[C@@H]2COC(C(Cl)Cl)=N2)cc1
LD50: 6000 mg/kg

O=c1nn[nH]c2ccccc12
LD50: 595 mg/kg

CCCCOC(=O)CCCOc1ccc(Cl)cc1Cl
LD50: 300 mg/kg

NCC(O)c1ccc(O)c(O)c1 (stereo unspecified)
LD50: 132 mg/kg

Cc1nc(Cn2cnc3c2c(=O)n(C)c(=O)n3C)no1
LD50: 1550 mg/kg

C#CC(C)OC(=O)Nc1cccc(Cl)c1 (stereo unspecified)
LD50: 2380 mg/kg

CCCCCC1=CCCC1=O
LD50: 2200 mg/kg

OC/C=C/Cl
LD50: 102 mg/kg

CCCCOC(=O)CC(SP(=O)(OC)OC)C(=O)OCCCC (stereo unspecified)
LD50: 515 mg/kg

ClCCC[Si](Cl)(Cl)Cl
LD50: 200 mg/kg

O=c1[nH]c(=O)n([C@H]2C[C@H](O)[C@@H](CO)O2)cc1Br
LD50: 8400 mg/kg

CC(Oc1cccc2ccccc12)C(N)=NO (stereo unspecified)
LD50: 90 mg/kg

CC[C@@H](C(=O)O)[C@@H]1O[C@@H]([C@@H](C)[C@H](O)[C@H](C)C(=O)[C@H](CC)[C@H]2O[C@]3(C=C[C@@H](O)[C@]4(CC[C@@](C)([C@H]5CC[C@](O)(CC)[C@H](C)O5)O4)O3)[C@H](C)C[C@@H]2C)[C@@H](C)C[C@@H]1C
LD50: 18.5 mg/kg

Cc1ccc(S(=O)(=O)/C=C/C#N)cc1
LD50: 1440 mg/kg

c1ccc(C2(N3CCCCC3)CCCCC2)cc1
LD50: 135 mg/kg

CN(N=O)C(=O)C(=O)N(C)N=O
LD50: 96 mg/kg

CCN1CN(CC)CN(CC)C1
LD50: 316 mg/kg

CCCCCCCCCCC(C)c1ccc(S(=O)(=O)O)cc1 (stereo unspecified)
LD50: 437 mg/kg

O=P(OCCCl)(OCCCl)OCC(CO)(CO)COP(=O)(OCCCl)OCCCl
LD50: 4920 mg/kg

C=CC(=O)OCC(CC)CC
LD50: 6490 mg/kg

O=C1CCCN1CCO
LD50: 14400 mg/kg

NCCCOCCCCOCCCN
LD50: 3450 mg/kg

Cc1cc(S(=O)(=O)c2ccccc2)ccc1NS(=O)(=O)C(F)(F)F
LD50: 633 mg/kg

CCCCOC(=O)CC(CC(=O)OCCCC)(OC(C)=O)C(=O)OCCCC
LD50: 31400 mg/kg

CC(O)CN(CC(C)O)c1nc(Nc2ccc(S(=O)(=O)O)cc2)nc(Nc2ccc(/C=C/c3ccc(Nc4nc(Nc5ccc(S(=O)(=O)O)cc5)nc(N(CC(C)O)CC(C)O)n4)cc3S(=O)(=O)O)c(S(=O)(=O)O)c2)n1 (stereo unspecified)
LD50: 12100 mg/kg

C=CP(=O)(OCCCl)OCCCl
LD50: 990 mg/kg

O=C(O)c1cc2ccccc2c(Cc2c(O)c(C(=O)OCCOCCN3CCN(C(c4ccccc4)c4ccc(Cl)cc4)CC3)cc3ccccc23)c1O (stereo unspecified)
LD50: 1740 mg/kg

NC(=O)Cc1c([O-])on[n+]1Cc1ccccc1
LD50: 4450 mg/kg

Fc1ccc([C@@H]2CCNC[C@H]2COc2ccc3c(c2)OCO3)cc1
LD50: 415 mg/kg

CCOC(=S)SSSSC(=S)OCC
LD50: 275 mg/kg

O=C(O)c1cccnc1Nc1cccc(C(F)(F)F)c1
LD50: 250 mg/kg

CCOP(=O)(OCC)SCn1nc(Cl)c(C)cc1=O
LD50: 27 mg/kg

FC(F)(F)c1nc2c(Cl)cc(Cl)cc2[nH]1
LD50: 3.29 mg/kg

CCS(=O)(=O)Nc1c(C)cc(OC(=O)NC)cc1C
LD50: 780 mg/kg

CCOC(=O)Nc1ccc2c(c1)N(C(=O)CCN1CCN(CCO)CC1)c1ccccc1CC2
LD50: 147 mg/kg

COC(=O)C=Cc1ccccc1
LD50: 2610 mg/kg

C#CCOc1ccccc1OC(=O)NC
LD50: 60 mg/kg

CN(C)c1nc2cc(Cl)ccc2o1
LD50: 800 mg/kg

C1=CC2C3CCC(C3)C2C1 (stereo unspecified)
LD50: 670 mg/kg

Cc1ncc2coc(OCCO)c2c1O
LD50: 2200 mg/kg

CCOC(C1=NCC(C)(C)CN1)c1cccc(Cl)c1 (stereo unspecified)
LD50: 95 mg/kg

CN(C)Cc1ccccc1
LD50: 265 mg/kg

CC(C)Nc1nc(NC(C)C)nc(N(C)C#N)n1
LD50: 1700 mg/kg

CC(=CC(O)(C(F)(F)F)C(F)(F)F)CC(O)(C(F)(F)F)C(F)(F)F
LD50: 18 mg/kg

Cc1ccc(NN)cc1
LD50: 262 mg/kg

NC(=O)N1CCC(c2ccccc2)CC1
LD50: 790 mg/kg

CC(C)=NNC(=O)CSc1cc(Oc2ccc(C)cc2)ncn1
LD50: 900 mg/kg

O=C1OC(CCN2CCCCC2)OC1(c1ccccc1)c1ccccc1 (stereo unspecified)
LD50: 1500 mg/kg

C=C1CC[C@H](O)C/C1=C/C=C1\CCC[C@]2(C)[C@@H]([C@H](C)CCCC(C)C)CC[C@@H]12
LD50: 42 mg/kg

CCc1occc(=O)c1O
LD50: 1150 mg/kg

CCC(=O)Nc1ccc2nc(C(F)(F)F)[nH]c2c1
LD50: 8.92 mg/kg
